In paper PMC11088877, “AMP-activated protein kinase can be allosterically activated by ADP but AMP remains the key activating ligand” (Biochemical Journal, 2024):
Several values for one entry are separate records, joined by “and”; a condition that tells them apart may be missing. Equal entries are not always repeated. Where two headings read alike, the source gives them in different places.

Columns and labels:
[1] = molecular target: T1, human α2β2γ1 complex (WT) (Homo sapiens, UniProt P54619+P54646); test: Allosteric activation of WT human α2β2γ1 AMPK complex by AMP and ADP; type: biochemical
T1 construct: made in house; host or cells: Escherichia coli
T1 sequence (P54619 whole entry): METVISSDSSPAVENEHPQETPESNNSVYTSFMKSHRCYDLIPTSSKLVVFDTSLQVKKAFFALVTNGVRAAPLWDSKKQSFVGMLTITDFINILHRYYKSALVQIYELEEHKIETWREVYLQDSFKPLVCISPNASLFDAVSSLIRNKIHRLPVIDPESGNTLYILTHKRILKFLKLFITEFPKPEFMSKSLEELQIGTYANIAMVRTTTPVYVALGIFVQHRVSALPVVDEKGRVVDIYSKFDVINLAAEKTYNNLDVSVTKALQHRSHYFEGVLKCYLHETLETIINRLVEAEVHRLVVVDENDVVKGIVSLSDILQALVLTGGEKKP
T1 sequence (P54646 whole entry): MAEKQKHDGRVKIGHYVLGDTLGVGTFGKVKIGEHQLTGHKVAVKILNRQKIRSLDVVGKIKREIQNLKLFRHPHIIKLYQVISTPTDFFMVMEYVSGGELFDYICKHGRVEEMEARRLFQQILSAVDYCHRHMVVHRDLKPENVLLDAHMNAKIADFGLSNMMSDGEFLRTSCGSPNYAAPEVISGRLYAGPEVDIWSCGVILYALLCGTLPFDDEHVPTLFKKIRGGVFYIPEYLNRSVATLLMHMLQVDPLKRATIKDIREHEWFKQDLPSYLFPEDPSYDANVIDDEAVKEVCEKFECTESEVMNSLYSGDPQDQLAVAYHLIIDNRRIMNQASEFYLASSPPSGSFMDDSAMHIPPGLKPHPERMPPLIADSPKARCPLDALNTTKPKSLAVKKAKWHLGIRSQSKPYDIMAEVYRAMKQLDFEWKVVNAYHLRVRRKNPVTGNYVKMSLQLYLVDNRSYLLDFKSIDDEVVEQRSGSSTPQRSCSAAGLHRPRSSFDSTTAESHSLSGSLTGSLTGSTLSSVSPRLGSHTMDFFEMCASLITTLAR
T1 sequence (O43741 whole entry partner): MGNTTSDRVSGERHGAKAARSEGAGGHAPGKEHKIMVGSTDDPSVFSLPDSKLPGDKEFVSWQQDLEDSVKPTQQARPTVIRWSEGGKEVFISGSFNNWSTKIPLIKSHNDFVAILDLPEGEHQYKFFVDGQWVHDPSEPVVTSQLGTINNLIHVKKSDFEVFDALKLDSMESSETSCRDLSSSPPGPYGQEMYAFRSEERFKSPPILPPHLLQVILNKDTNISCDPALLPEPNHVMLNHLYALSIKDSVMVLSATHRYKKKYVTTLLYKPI
Description: To study allosteric activation with a more well-defined AMPK complex, and to study the effects of mutations in individual adenine nucleotide-binding sites on the γ subunit, we expressed a human α2β2γ1 complex in Escherichia coli and purified it utilizing the polyhistidine tag at the N-terminus of the α2 subunit. […] However, it had not been co-expressed with an N-myristoyl transferase so would not have been N-myristoylated on the β2 subunit. The complex was expressed not only with the WT γ1 sequence but also with mutations affecting hydrophobic residues previously shown to be involved in binding of the adenine moieties of nucleotides at CBS1 (L129D/V130D), CBS3 (V276G/L277G) and CBS4 (I312G). All four complexes co-purified as heterotrimeric 1:1:1 complexes as expected, and were phosphorylated and activated equally well either by CaMKK2 or the LKB1: STRADα:MO25α complex (Supplementary Figure S2). For the studies described below we phosphorylated Thr172 using a GST-tagged CaMKK2 and repurified AMPK using size exclusion chromatography and a glutathione-Sepharose column, which remove CaMKK2.
Figure 4. Allosteric activation of WT and mutant human α2β2γ1 AMPK complex by AMP and ADP at three different concentrations of ATP. The α2β2γ1 complex was phosphorylated on Thr172 prior to assay using CaMKK2. The γ1 subunit was either (A/E): WT; (B/F): a CBS1 mutant (L129D/V130D); (C/G): a CBS3 mutant (V276G/L277G); (D/H): a CBS4 mutant (I312G). Results are means of duplicate assays ± SD; error bars are not shown if they were smaller than the symbols used for mean values. Assays and curve fitting were as in Figure 1 at either 0.2 mM (left panels) or 5 mM (right panels) ATP. Best-fit values for all parameters used to generate the curves are listed in Supplementary Table S1.
Sources of antibodies were as described: pThr172 (AMPK-α: Cell Signaling Technologies, Danvers, MA, U.S.A., Cat# 2535), AMPK-α2 [22]. Rat liver AMPK was purified as described previously. Plasmid encoding human (His)6-tagged AMPK (α2β2γ1, bacterially expressed) generated as in [23], was a gift from AstraZeneca, Cambridge, U.K. The L129D/V130D (CBS1), V276G/L277G (CBS3) and I312G (CBS4) mutations in the α2β2γ1 complex were generated using the Quikchange II site-directed mutagenesis kit (Agilent Technologies) and confirmed by DNA sequencing. Human GST-tagged α2 kinase domain (1–310), LKB1:STRAD-α:MO25-α complexes, GST-tagged CaMKK2 [26], and PPM1A (PP2Cα) were produced as described. Bacterially expressed heterotrimers were activated by phosphorylation of Thr172 by GST-tagged CaMKK2 in the presence of ATP, and CaMKK2 was subsequently removed by passage through glutathione-Sepharose. Human GST-tagged α2 kinase domain was activated in a similar manner except that human (His)6-tagged LKB1:STRAD-α:MO25-α complex was used and removed after activation via passage through a His-Trap column. Recombinant human 5′-nucleotidase, CD73, Cat # 5795-EN-01, was from R&D systems (Minneapolis, MN, U.S.A.).
AMPK assays measured the transfer of radioactivity from [γ-^33P]ATP to a peptide substrate, which was separated from unreacted ATP by binding to P81 paper. This assay was described previously except that we used [γ-^33P] rather than [γ-^32P]ATP. In some assays (specified in Figure legends) the concentration of ATP was increased from 0.2 to 1 or 5 mM ATP, with MgCl2 concentrations maintained at a constant 4.8 mM excess above the concentration of ATP [19]. Where allosteric activation by AMP or ADP was being studied, we used the SAMS peptide as substrate. For all other assays the AMARA peptide was used.

[2] = molecular target: T2, unphosphorylated human α2β2γ1 complex (WT) (Homo sapiens, UniProt P54619+P54646); test: AMPK activation and Thr172 phosphorylation by the LKB1:STRADα:MO25α complex, WT; type: biochemical; settings: 300 µM nucleotide, 200 µM Mg.ATP2−
T2 construct: made in house; host or cells: Escherichia coli
T2 sequence (P54619 whole entry): as the sequence (P54619 whole entry) above
T2 sequence (P54646 whole entry): as the sequence (P54646 whole entry) above
T2 sequence (O43741 whole entry partner): as the sequence (O43741 whole entry partner) above
Procedure: The relative roles of the three CBS sites in the other two mechanisms of activation of AMPK by AMP or ADP, i.e. promotion of Thr172 phosphorylation by LKB1, and protection against Thr172 dephosphorylation by protein phosphatases, have not been examined previously. As expected, incubation of the α2β2γ1 AMPK complex with a fixed, limiting amount of purified LKB1:STRADα:MO25α complex in the presence of 200 µM Mg.ATP^2− caused a large degree of activation (Figure 5A) and phosphorylation (Figure 5B) of AMPK (unphosphorylated α2β2γ1 complex), which were stimulated more than 2-fold by 300 µM AMP and 1.6-fold by 300 µM ADP.
Figure 5. Effects of AMP or ADP on AMPK activation and Thr172 phosphorylation by the LKB1:STRADα:MO25α complex. Unphosphorylated human α2β2γ1 complexes (WT, or with L129D/V130D, V276G/L277G or I312G mutations affecting CBS1, CBS3 or CBS4 respectively) were incubated with ATP and a fixed concentration of the LKB1:STRADα:MO25α complex in the presence or absence of AMP or ADP (both 300 µM), as described in the Materials and methods section. After the incubation aliquots were withdrawn for (A) AMPK assay or (B) Western blots. […] For (B), due to a limit on the number of lanes that could be run on one gel, single replicates from the triplicate assays were analysed. […]

Nc1ncnc2c1ncn2[C@@H]1O[C@H](COP(=O)(O)OP(=O)(O)O)[C@@H](O)[C@H]1O [ADP]
Activation (maximal) ([1]; 0.2 mM ATP): did not cause allosteric activation and none
IC50 ([1]; 0.2 mM ATP): 2.6 mM
maximal activation actually reached ([1]; 5 mM ATP): 1.6 fold
Activation (extrapolated maximal) ([1]; 5.0 mM ATP): 9.9 fold and 9.9 (2.8 -??) fold
IC50 ([1]; 5.0 mM ATP): 1.2 mM
IC50/EC50 ([1]; 5.0 mM ATP): 1.5
EC50 ([1]; 5.0 mM ATP, read-out: EC50): 785 µM
EC50 ([1]; 5 mM ATP, read-out: EC50 for activation): 780 µM and 800 µM
stimulation of activation and phosphorylation of AMPK by LKB1:STRADα:MO25α complex [2]: 1.6 fold

Nc1ncnc2c1ncn2[C@@H]1O[C@H](COP(=O)(O)O)[C@@H](O)[C@H]1O [AMP]
Activation (maximal) ([1]; 0.2 mM ATP): 2.6 fold and 2.6 (2.5-2.6) fold
IC50 ([1]; 0.2 mM ATP): 2.6 mM
IC50/EC50 ([1]; 0.2 mM ATP): 2600
EC50 ([1]; 0.2 mM ATP, read-out: EC50): 0.99 µM and 1 µM
Activation (extrapolated maximal) ([1]; 5.0 mM ATP): 3.0 fold and 3.0 (2.9-3.1) fold
IC50 ([1]; 5.0 mM ATP): 52 mM
IC50/EC50 ([1]; 5.0 mM ATP): 2700
EC50 ([1]; 5.0 mM ATP, read-out: EC50): 19 µM
stimulation of activation and phosphorylation of AMPK by LKB1:STRADα:MO25α complex [2]: more than 2 fold
